Results published in PubChem BioAssay (NCI).
“And” between values parts separate entries of the source, which are not always exact repeats. Equal entries are not always repeated.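 The compound was tested at five concentrations on cells cultured in 96-well plates, with a 48-hour exposure period. GI50 marks 50% less growth. At the TGI there is no net growth.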

Key:
Assay in all cases: NCI anticancer screen, dose series, 48 h
OVCAR-3 ovarian = system: OVCAR-3 ovarian
OVCAR-5 ovarian = system: OVCAR-5 ovarian
SK-MEL-2 melanoma = system: SK-MEL-2 melanoma
BT-549 breast = system: BT-549 breast
DU-145 prostate = system: DU-145 prostate
HL-60(TB) leukemia = system: HL-60(TB) leukemia
MOLT-4 leukemia = system: MOLT-4 leukemia
SNB-75 CNS = system: SNB-75 CNS
LOX IMVI melanoma = system: LOX IMVI melanoma
SF-539 CNS = system: SF-539 CNS

| SMILES | TGI (OVCAR-3 ovarian) | TGI (OVCAR-5 ovarian) | TGI (SK-MEL-2 melanoma) | TGI (BT-549 breast) | TGI (DU-145 prostate) | TGI (HL-60(TB) leukemia) [µM] | TGI (MOLT-4 leukemia) [µM] | TGI (SNB-75 CNS) | TGI (LOX IMVI melanoma) | GI50 (OVCAR-3 ovarian) | GI50 (OVCAR-5 ovarian) | GI50 (SK-MEL-2 melanoma) | GI50 (BT-549 breast) | GI50 (DU-145 prostate) | GI50 (HL-60(TB) leukemia) | GI50 (MOLT-4 leukemia) | GI50 (SF-539 CNS) | TGI (SF-539 CNS) | GI50 (SNB-75 CNS) | GI50 (LOX IMVI melanoma) |
| --- | --- | --- | --- | --- | --- | --- | --- | --- | --- | --- | --- | --- | --- | --- | --- | --- | --- | --- | --- | --- |
| N=C1C(O)C2(I)c3ccccc3N3C(=N)C(O)C4c5ccccc5N1C4C32 (centres undefined) | > 100 µM | > 100 µM | > 100 µM | > 100 µM | > 100 µM | 79.4 | > 100 | > 100 µM | > 100 µM | – | – | – | – | – | – | – | – | – | – | – |
| CC1=C([Se]CC(OC(=O)CC[Se]c2ccccc2)C(=O)NC(C)(C)C)C(=O)c2ccccc2C1=O (centres undefined) | 3.11 µM | 3.18 µM | 3.7 µM | 3.15 µM | 3.6 µM | 2.92 | 3.44 | 2.82 µM | 4.7 µM | 1.61 µM | 1.75 µM | 2 µM | 1.64 µM | 1.97 µM | 1.07 µM | 0.545 µM | 1.75 µM | 3.15 µM | 1.47 µM | 1.94 µM |
| C=C1CCC2C3(C)COC(C)(C)OC3CCC2(C)C1C/C=C1/C(=O)OCC1OC(C)=O (centres undefined) | 6.07 µM | 11.2 µM | 15.6 µM | 6.79 µM | 14 µM | 7.14 | 14.3 | 16.5 µM | 2.46 µM | 2.47 µM | 3.78 µM | 3.52 µM | 2.33 µM | 4.28 µM | 2.55 µM | 3.53 µM | 1.72 µM | 3.3 µM | 5.23 µM | 0.704 µM |
| C=CCc1c(Cl)nc(Cl)nc1Cl | 0.311 µM | 2.02 µM | – | 0.641 µM | 4.86 µM | > 100 | 0.0625 | 5.87 µM | 0.344 µM | – | – | – | – | – | – | – | – | 3.78 µM | – | – |
| Cn1ncc(-c2ccc3c(=O)[nH]nc(CN)c3c2)c1-c1c(F)c(Cl)cc(OC2CC2)c1C#N | 30.6 µM and 26.5 µM | 77 µM and 44.7 µM | 29.1 µM and 26.8 µM | 30.2 µM and 28.6 µM | 32.2 µM and 28.1 µM | > 100 | > 100 | 23.7 µM and 20.7 µM | 25.6 µM and 26.2 µM | 15 µM and 12.6 µM | 20.4 µM and 16.8 µM | 15.3 µM and 13.6 µM | 14.9 µM and 14.3 µM | 16.9 µM and 14.4 µM | 20.6 µM and 23.1 µM | 10.9 µM and 11.7 µM | 14.4 µM and 13.1 µM | 28 µM and 26.7 µM | 11.1 µM and 5.4 µM | 12.5 µM and 12.9 µM |
| O=C(c1ccc2ccccc2c1)c1c(C(F)(F)F)n([O-])c2ccc(C(F)(F)F)cc2[n+]1=O | 2.26 µM | 4.2 µM | 3.77 µM | 0.751 µM | 2 µM | 2.2 | 1.62 | 1.48 µM | 0.363 µM | 0.884 µM | 0.992 µM | 1.96 µM | 0.278 µM | 0.738 µM | 0.639 µM | 0.441 µM | 1.56 µM | 2.97 µM | 0.64 µM | 0.191 µM |
| CC(CO)Nc1cc(-c2[nH]c3cccnc3c2-c2ccc(F)cc2)ccn1 (centres undefined) | > 25 µM | > 25 µM | > 25 µM | > 25 µM | > 25 µM | > 25 | > 25 | > 25 µM | > 25 µM | 16.8 µM | 22.8 µM | > 25 µM | 16.1 µM | 17.6 µM | > 25 µM | > 25 µM | > 25 µM | > 25 µM | 14.8 µM | 13.7 µM |
| COc1ccc(C2=Nn3c(nnc3-c3cc(Cl)cc(Cl)c3Cl)SC2)cc1 | 0.772 µM | > 100 µM | > 55.7 µM | > 21.9 µM | 4.42 µM | 2.03 | > 100 | – | > 100 µM | 0.173 µM | 1.42 µM | 1.21 µM | 0.661 µM | 0.355 µM | 0.461 µM | 1.49 µM | 0.225 µM | 0.741 µM | 0.335 µM | 0.568 µM |
| CC(=O)c1c(O)c(C)c(O)c(Cc2c(O)c3c(c(C(=O)/C=C/c4ccccc4)c2O)OC(C)(C)C=C3)c1O | 15.8 µM | 22.4 µM | 4.09 µM | 8.77 µM | 41.1 µM | 26.2 | 16.8 | 7.93 µM | 14.3 µM | – | – | – | – | – | – | – | – | 26.5 µM | – | – |
| CNC(=S)Nc1ccc(OC)c2ccccc12 | 6.72 µM | > 10 µM | – | > 10 µM | > 10 µM | > 10 | > 10 | > 10 µM | > 10 µM | – | – | – | – | – | – | – | – | > 10 µM | – | – |
| Cc1c2cnccc2c(C)c2c1c1cc(C#N)ccc1n2C | 0.792 µM | 1.47 µM | 0.771 µM | 1.97 µM | 0.836 µM | 1.77 | 1.68 | 0.966 µM | 0.615 µM | 0.215 µM | 0.262 µM | 0.256 µM | 0.406 µM | 0.208 µM | 0.401 µM | 0.0959 µM | 0.254 µM | 1.14 µM | 0.179 µM | 0.115 µM |
| CN(C)c1cc2ccccc2oc1=O | > 100 µM | > 100 µM | > 100 µM | > 100 µM | > 100 µM | > 100 | > 100 | > 100 µM | > 100 µM | – | – | – | – | – | – | – | – | > 100 µM | – | – |
| Nc1ncn([C@@H]2S[C@H](CO)[C@@H](O)[C@@H]2F)c(=O)n1 | > 100 µM | > 100 µM | > 100 µM | > 100 µM | > 100 µM | > 31.5 | > 100 | > 100 µM | > 100 µM | > 74 µM | 2.64 µM | > 100 µM | 54.7 µM | 0.508 µM | 0.571 µM | 0.172 µM | 9.8 µM | > 77.9 µM | 43.4 µM | 1.16 µM |
| Cc1ccc2cnc(N)c(C#Cc3cc(C(=O)Nc4ccc(CN5CCN(C)CC5)c(C(F)(F)F)c4)cnc3C)c2c1 | 2.66 µM | 1.49 µM | 1.73 µM | 6.23 µM | 1.14 µM | 6.58 | – | 1.61 µM | 0.808 µM | 0.67 µM | 0.688 µM | 0.761 µM | 1.94 µM | 0.531 µM | 1.73 µM | – | 0.664 µM | 1.32 µM | 0.756 µM | 0.183 µM |
| O=S(=O)(/N=c1\scc(-c2ccccc2)n1-c1ccccc1)c1ccc(N2N=C3c4ccccc4CC3C2c2ccc(Cl)cc2)cc1 (centres undefined) | > 100 µM | > 100 µM | > 100 µM | > 100 µM | > 100 µM | 69 | > 100 | > 100 µM | 43.5 µM | 44.3 µM | 38.1 µM | 36 µM | 41.4 µM | 54.3 µM | 29.6 µM | 18.5 µM | 62.6 µM | > 100 µM | > 100 µM | 21.5 µM |
